Test results from ChEMBL document CHEMBL5212743, “Selectivity Literature for EUbOPEN Chemogenomics Library wave 3” (2023).

Assays:
[1] = biological target: T1, Cytoplasmic tyrosine-protein kinase BMX (Homo sapiens) (UniProt P51813); assay: Selectivity interaction (KinomeScan (DiscoverX)) EUB0000549a BMX; conditions: at 1 µM
T1 sequence (whole entry): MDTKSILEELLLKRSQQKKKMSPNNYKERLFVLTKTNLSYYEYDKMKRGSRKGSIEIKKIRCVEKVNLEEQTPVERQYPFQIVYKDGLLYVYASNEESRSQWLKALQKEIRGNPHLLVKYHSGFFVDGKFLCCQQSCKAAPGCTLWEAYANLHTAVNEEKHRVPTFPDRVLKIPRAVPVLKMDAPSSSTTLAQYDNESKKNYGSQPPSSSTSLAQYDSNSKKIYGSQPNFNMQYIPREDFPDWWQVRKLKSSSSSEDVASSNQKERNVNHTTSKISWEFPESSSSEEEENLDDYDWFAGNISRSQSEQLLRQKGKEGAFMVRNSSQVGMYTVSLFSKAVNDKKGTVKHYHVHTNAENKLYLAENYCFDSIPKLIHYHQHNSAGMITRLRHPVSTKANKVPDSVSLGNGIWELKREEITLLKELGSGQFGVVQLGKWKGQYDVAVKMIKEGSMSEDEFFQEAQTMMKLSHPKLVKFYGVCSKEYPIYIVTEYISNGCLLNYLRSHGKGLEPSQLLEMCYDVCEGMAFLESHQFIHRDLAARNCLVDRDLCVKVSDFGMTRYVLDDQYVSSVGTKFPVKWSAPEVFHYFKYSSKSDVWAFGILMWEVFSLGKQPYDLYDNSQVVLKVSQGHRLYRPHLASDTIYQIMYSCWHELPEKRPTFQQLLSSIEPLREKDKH

[2] = biological target: Transient receptor potential cation channel subfamily M member 6 (Homo sapiens) (UniProt Q9BX84); assay: Selectivity interaction (KinomeScan (DiscoverX)) EUB0000549a TRPM6; conditions: at 1 µM
[3] = biological target: T2, Serine/threonine-protein kinase 38-like (Homo sapiens, UniProt Q9Y2H1); assay: Selectivity interaction (KinomeScan (DiscoverX)) EUB0000549a STK38L; conditions: at 1 µM
T2 sequence (Q9Y2H1 2-464 limits assumed): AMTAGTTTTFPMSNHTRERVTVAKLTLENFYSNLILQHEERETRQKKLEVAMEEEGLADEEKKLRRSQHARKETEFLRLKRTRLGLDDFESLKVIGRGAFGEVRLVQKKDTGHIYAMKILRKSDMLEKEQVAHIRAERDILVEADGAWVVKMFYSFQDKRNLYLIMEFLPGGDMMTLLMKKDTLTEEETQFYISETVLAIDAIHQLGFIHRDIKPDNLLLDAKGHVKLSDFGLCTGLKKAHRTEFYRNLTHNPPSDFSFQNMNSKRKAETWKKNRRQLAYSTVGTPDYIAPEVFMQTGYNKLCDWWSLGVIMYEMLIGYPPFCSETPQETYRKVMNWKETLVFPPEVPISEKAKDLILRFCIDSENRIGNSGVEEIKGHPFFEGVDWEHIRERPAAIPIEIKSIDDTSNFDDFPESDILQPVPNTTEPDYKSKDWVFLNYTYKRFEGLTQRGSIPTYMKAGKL

[4] = biological target: Serine/threonine-protein kinase Nek4 (Homo sapiens) (UniProt P51957); assay: Selectivity interaction (KinomeScan (DiscoverX)) EUB0000549a NEK4; conditions: at 1 µM
Chain of Serine/threonine-protein kinase Nek4 (Homo sapiens) (P51957 whole entry, looked up): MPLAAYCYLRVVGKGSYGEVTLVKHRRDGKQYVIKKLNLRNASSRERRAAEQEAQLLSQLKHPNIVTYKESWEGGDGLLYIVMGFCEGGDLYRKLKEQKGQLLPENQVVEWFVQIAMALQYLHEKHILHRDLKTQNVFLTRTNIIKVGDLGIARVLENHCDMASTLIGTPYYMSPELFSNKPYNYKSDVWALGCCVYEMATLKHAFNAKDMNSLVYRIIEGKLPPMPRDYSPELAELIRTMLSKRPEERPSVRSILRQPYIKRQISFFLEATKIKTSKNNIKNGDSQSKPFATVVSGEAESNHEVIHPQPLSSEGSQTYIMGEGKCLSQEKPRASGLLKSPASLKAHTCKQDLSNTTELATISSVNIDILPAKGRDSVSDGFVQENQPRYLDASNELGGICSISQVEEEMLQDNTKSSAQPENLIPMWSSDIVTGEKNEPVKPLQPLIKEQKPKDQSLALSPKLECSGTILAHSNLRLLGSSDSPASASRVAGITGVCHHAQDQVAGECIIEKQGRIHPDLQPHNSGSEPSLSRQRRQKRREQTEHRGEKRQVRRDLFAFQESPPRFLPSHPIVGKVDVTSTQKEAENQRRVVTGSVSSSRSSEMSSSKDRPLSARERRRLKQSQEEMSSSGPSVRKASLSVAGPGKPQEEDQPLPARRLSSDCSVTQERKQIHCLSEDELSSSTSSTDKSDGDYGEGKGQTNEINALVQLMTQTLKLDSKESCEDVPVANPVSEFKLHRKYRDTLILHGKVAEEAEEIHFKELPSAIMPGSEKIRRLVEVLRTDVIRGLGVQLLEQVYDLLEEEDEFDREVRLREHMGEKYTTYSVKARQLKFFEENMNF

[5] = biological target: Leucine-rich repeat serine/threonine-protein kinase 2 (Homo sapiens, UniProt Q5S007); assay: Selectivity interaction (KinomeScan (DiscoverX)) EUB0000352a LRRK2; conditions: at 1 µM
[6] = biological target: Sodium-dependent dopamine transporter (Homo sapiens, UniProt Q01959); assay: Selectivity interaction (Eurofins-Panlabs screen (receptors)) EUB0000352a SLC6A3; conditions: at 10 µM
Chain of Sodium-dependent dopamine transporter (Q01959 whole entry): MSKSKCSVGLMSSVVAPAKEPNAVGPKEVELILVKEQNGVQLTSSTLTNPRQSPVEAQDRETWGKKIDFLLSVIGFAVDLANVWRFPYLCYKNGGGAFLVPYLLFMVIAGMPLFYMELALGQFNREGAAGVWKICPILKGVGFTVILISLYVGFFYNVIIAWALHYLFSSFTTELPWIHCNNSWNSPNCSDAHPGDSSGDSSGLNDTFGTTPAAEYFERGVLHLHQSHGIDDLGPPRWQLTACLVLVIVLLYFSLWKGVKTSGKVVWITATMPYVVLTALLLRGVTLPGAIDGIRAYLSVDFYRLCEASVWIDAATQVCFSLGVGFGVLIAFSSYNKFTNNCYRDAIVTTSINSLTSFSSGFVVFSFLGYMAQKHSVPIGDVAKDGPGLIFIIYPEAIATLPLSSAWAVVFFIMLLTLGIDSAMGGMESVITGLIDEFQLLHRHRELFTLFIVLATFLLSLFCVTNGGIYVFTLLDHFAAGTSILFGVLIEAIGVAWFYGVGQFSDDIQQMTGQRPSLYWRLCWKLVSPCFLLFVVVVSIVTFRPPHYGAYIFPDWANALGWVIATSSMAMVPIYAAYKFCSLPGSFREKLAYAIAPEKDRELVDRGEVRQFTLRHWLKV

[7] = biological target: T2, Serine/threonine-protein kinase 38-like; assay: Selectivity interaction (KinomeScan (DiscoverX)) EUB0000352a STK38L; conditions: at 1 µM
[8] = biological target: Tyrosine-protein kinase JAK1 (Homo sapiens, UniProt P23458); conditions: at 1 µM
[9] = biological target: T3, Tyrosine-protein kinase ABL1 (Homo sapiens, UniProt P00519); conditions: at 20 µM
T3 sequence (P00519 whole entry): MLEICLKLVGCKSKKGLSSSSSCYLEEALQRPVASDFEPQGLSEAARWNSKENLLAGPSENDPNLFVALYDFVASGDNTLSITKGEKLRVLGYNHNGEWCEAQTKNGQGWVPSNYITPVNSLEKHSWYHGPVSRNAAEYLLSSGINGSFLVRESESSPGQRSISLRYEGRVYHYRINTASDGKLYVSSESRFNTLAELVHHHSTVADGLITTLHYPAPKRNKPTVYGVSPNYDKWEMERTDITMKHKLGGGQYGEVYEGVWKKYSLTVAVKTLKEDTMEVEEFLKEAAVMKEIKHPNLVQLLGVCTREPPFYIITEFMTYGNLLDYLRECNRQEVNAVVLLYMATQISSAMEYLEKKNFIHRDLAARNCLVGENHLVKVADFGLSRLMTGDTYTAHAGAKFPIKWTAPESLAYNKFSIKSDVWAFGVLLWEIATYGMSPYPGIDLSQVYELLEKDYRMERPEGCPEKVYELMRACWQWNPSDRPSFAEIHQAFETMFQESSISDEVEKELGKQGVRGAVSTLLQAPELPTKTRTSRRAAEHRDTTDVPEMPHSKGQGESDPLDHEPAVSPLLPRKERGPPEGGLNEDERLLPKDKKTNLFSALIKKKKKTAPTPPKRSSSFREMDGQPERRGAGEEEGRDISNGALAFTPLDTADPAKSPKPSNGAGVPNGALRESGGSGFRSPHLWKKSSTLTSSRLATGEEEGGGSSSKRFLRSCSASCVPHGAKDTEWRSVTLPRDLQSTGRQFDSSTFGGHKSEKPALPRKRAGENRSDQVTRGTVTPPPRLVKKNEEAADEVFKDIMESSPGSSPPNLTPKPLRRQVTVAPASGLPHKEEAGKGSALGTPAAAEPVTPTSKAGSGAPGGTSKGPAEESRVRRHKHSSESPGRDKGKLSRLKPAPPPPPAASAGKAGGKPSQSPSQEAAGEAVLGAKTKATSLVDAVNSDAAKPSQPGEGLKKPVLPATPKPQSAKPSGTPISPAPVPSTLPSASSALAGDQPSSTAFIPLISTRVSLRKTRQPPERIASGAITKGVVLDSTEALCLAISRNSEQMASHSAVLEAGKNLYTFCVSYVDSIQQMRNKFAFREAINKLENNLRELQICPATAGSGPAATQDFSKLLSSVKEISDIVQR

[10] = biological target: T3, Tyrosine-protein kinase ABL1; conditions: at 20 µM; remark: listed apart in the source
[11] = biological target: 5-hydroxytryptamine receptor 1B (Homo sapiens) (UniProt P28222); assay: Selectivity interaction (GPCR panel (PDSP screen)) EUB0000343a HTR1B; conditions: at 10 µM
[12] = biological target: Serine/threonine-protein kinase Nek1 (Homo sapiens) (UniProt Q96PY6); assay: Selectivity interaction (KinomeScan (DiscoverX)) EUB0000343a NEK1; conditions: at 1 µM
[13] = biological target: T4, Phosphatidylinositol 5-phosphate 4-kinase type-2 gamma (Homo sapiens) (UniProt Q8TBX8); assay: Selectivity interaction (KinomeScan (DiscoverX)) EUB0000343a PIP4K2C; conditions: at 1 µM
T4 sequence (whole entry): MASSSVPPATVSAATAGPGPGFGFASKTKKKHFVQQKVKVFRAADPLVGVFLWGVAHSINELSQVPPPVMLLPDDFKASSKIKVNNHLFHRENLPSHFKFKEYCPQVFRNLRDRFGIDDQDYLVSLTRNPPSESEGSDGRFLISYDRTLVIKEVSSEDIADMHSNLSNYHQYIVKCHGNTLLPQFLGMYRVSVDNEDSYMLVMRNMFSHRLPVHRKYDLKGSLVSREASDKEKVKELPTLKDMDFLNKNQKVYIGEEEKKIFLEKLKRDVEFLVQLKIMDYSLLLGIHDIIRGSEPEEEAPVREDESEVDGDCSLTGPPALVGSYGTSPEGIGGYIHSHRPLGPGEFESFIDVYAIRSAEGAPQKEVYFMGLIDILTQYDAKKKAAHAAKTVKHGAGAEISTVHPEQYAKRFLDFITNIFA

[14] = biological target: Atypical kinase COQ8B, mitochondrial (Homo sapiens) (UniProt Q96D53); assay: Selectivity interaction (KinomeScan (DiscoverX)) EUB0000740a ADCK4; conditions: at 1 µM
[15] = biological target: Ephrin type-A receptor 5 (Homo sapiens) (UniProt P54756); assay: Selectivity interaction (KinomeScan (DiscoverX)) EUB0000740a EPHA5; conditions: at 1 µM
Aurora kinase B = Aurora kinase B (Homo sapiens, UniProt Q96GD4); assay: Selectivity interaction (KinomeScan (DiscoverX)) EUB0000740a AURKB; conditions: at 1 µM
Chain of Aurora kinase B (Q96GD4 whole entry): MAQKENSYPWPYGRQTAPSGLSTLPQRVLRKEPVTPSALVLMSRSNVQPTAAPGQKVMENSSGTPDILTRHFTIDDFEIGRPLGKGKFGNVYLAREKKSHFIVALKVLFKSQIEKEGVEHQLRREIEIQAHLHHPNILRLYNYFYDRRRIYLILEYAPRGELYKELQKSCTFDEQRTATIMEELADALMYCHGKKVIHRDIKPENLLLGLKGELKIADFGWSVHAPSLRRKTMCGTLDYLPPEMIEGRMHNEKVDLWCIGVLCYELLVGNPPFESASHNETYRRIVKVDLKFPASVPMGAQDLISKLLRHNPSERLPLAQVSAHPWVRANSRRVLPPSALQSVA

[16] = biological target: T5, Serine/threonine-protein kinase LATS2 (Homo sapiens) (UniProt Q9NRM7); assay: Selectivity interaction (KinomeScan (DiscoverX)) EUB0000740a LATS2; conditions: at 1 µM
T5 sequence (whole entry): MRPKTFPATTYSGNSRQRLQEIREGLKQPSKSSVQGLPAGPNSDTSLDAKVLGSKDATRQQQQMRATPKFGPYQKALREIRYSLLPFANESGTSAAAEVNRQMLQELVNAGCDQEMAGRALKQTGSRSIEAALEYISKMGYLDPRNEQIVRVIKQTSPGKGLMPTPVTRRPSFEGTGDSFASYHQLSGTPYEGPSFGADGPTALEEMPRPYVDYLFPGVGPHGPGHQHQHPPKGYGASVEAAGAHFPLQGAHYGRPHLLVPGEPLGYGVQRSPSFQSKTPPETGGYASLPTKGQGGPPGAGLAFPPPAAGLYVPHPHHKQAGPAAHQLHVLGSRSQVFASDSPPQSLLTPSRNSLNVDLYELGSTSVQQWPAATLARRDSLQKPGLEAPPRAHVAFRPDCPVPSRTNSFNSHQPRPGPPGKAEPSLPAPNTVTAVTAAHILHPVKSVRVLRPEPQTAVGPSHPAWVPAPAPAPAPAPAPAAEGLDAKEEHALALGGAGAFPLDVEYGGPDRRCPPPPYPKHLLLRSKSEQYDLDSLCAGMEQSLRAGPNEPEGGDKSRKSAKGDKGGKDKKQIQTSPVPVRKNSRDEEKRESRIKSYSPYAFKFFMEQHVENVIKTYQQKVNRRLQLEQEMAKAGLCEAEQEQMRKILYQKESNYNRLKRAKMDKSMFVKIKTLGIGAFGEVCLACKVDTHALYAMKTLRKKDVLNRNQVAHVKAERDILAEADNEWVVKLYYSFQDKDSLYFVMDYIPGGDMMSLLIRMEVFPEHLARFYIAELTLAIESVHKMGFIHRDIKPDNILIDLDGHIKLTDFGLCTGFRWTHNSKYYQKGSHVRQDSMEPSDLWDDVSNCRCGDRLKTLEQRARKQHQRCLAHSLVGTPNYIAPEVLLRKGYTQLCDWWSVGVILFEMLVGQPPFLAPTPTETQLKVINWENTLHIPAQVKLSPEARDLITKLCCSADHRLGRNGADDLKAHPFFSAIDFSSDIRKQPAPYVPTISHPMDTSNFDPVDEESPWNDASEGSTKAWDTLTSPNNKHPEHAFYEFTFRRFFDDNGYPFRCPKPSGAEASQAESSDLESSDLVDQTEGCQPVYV

D(1B) dopamine receptor [17] = biological target: T6, D(1B) dopamine receptor (Homo sapiens, UniProt P21918); assay: Selectivity interaction (GPCR panel (PDSP screen)) EUB0000314b DRD5; conditions: at 10 µM
T6 sequence (P21918 whole entry): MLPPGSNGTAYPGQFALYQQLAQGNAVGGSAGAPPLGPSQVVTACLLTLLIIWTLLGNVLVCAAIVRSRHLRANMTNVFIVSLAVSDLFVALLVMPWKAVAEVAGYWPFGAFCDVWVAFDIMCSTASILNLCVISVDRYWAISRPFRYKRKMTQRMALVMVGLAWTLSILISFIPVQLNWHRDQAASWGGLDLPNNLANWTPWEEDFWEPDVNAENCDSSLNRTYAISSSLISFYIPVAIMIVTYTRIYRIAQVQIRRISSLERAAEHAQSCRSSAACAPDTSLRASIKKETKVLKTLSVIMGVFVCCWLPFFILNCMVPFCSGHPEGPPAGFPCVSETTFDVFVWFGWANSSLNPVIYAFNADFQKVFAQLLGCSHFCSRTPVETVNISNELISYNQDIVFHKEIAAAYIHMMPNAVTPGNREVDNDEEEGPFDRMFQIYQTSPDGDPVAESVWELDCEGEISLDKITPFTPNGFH

[18] = biological target: Gamma-aminobutyric acid receptor subunit beta-2 (Homo sapiens) (UniProt P47870); assay: Selectivity interaction (Eurofins-Panlabs panel (at Boehringer Ingelheim)) EUB0000314b GABRB2; conditions: at 10 µM
[19] = biological target: T5, Serine/threonine-protein kinase LATS2 (Homo sapiens); assay: Selectivity interaction (KinomeScan (DiscoverX)) EUB0000314b LATS2; conditions: at 1 µM
[20] = biological target: Beta-1 adrenergic receptor (Homo sapiens) (UniProt P08588); assay: Selectivity interaction (Eurofins-Panlabs panel (at Boehringer Ingelheim)) EUB0000314b ADRB1; conditions: at 10 µM
[21] = biological target: Ribosomal protein S6 kinase alpha-2 (Homo sapiens) (UniProt Q15349); assay: Selectivity interaction (KinomeScan (DiscoverX)) EUB0000586a RPS6KA2; conditions: at 1 µM
Chain of Ribosomal protein S6 kinase alpha-2 (Homo sapiens) (Q15349 whole entry, looked up): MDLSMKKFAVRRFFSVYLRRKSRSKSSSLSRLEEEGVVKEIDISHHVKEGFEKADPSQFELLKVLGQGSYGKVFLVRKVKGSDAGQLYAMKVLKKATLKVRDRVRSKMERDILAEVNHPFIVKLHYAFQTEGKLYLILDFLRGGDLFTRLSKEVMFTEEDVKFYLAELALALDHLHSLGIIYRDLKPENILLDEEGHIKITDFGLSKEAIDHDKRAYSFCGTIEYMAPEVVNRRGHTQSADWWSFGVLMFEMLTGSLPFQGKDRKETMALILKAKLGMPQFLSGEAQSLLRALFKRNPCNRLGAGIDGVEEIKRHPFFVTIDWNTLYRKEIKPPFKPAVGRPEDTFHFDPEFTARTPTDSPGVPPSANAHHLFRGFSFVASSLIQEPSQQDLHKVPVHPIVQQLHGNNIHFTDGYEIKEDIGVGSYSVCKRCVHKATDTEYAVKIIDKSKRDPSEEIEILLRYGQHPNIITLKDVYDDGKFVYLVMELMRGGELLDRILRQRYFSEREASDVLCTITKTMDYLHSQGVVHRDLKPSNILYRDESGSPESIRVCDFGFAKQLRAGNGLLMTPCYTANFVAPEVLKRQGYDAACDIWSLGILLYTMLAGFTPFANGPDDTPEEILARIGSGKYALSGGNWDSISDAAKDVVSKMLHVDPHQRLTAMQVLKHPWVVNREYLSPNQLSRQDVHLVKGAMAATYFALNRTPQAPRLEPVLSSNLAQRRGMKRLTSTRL

[22] = biological target: Death-associated protein kinase 1 (Homo sapiens) (UniProt P53355); assay: Selectivity interaction (KinomeScan (DiscoverX)) EUB0000586a DAPK1; conditions: at 1 µM
[23] = biological target: T2, Serine/threonine-protein kinase 38-like; assay: Selectivity interaction (KinomeScan (DiscoverX)) EUB0000586a STK38L; conditions: at 1 µM
D(1B) dopamine receptor [24] = biological target: T6, D(1B) dopamine receptor; assay: Selectivity interaction (GPCR panel (PDSP screen)) EUB0000586a DRD5; conditions: at 10 µM
[25] = biological target: Ribosomal protein S6 kinase alpha-6 (Homo sapiens) (UniProt Q9UK32); assay: Selectivity interaction (KinomeScan (DiscoverX)) EUB0000586a RPS6KA6; conditions: at 1 µM
[26] = biological target: Serine/threonine-protein kinase 24 (Homo sapiens) (UniProt Q9Y6E0); assay: Selectivity interaction (KinomeScan (DiscoverX)) EUB0000586a STK24; conditions: at 1 µM
Chain of Serine/threonine-protein kinase 24 (Homo sapiens) (Q9Y6E0 whole entry, looked up): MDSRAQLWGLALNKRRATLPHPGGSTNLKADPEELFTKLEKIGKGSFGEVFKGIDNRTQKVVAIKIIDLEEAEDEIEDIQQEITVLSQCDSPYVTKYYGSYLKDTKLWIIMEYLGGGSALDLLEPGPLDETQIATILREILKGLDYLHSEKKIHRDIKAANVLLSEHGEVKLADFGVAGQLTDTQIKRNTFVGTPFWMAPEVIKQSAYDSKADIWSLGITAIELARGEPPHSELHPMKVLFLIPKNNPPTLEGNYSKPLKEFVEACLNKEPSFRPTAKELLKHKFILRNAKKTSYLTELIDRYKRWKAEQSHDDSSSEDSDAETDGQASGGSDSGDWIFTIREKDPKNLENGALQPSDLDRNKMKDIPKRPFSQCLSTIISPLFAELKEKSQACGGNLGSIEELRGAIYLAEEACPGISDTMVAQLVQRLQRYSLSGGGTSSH

[27] = biological target: Kappa-type opioid receptor (Homo sapiens, UniProt P41145); assay: Selectivity interaction (GPCR panel (PDSP screen)) EUB0000586a OPRK1; conditions: at 10 µM
[28] = biological target: Ribosomal protein S6 kinase alpha-1 (Homo sapiens) (UniProt Q15418); assay: Selectivity interaction (KinomeScan (DiscoverX)) EUB0000586a RPS6KA1; conditions: at 1 µM
[29] = biological target: Serine/threonine-protein kinase tousled-like 1 (Homo sapiens) (UniProt Q9UKI8); assay: Selectivity interaction (KinomeScan (DiscoverX)) EUB0000586a TLK1; conditions: at 1 µM
[30] = biological target: 5-hydroxytryptamine receptor 3A (Homo sapiens) (UniProt P46098); assay: Selectivity interaction (GPCR panel (PDSP screen)) EUB0000586a HTR3A; conditions: at 10 µM

## C[C@@]1(Cc2ccc(C#N)cc2)C(=O)N(c2cc(Cl)cc(Cl)c2)c2ncc(C(=O)NC3(c4nc(C5CCC5)no4)CC3)n21
[1]
  % of control: 40%
[2]
  % of control: 0%
[3]
  % of control: 48%
[4]
  % of control: 12%

## CS(=O)(=O)c1cc(C2(NC(=O)c3cncc4c3cnn4-c3ccc(F)cc3)CC2)ccn1
[5]
  % of control: 43%
[6]
  % of inhibition: 71%
[7]
  % of control: 34%

## CN(C)C(=O)Cn1cc(-c2nc([C@@](C)(c3ccc(-c4cnc(N)nc4)cc3)C3CC3)no2)cn1
[8]
  % of control: 33%
[9]
  % of inhibition: 67%
[10]
  % of control: 33%

## CS(=O)(=O)NCC[C@H](NC(=O)c1cncc2c1cnn2-c1ccc(F)cc1)c1ccnc(S(C)(=O)=O)c1
[11]
  % of inhibition: 47.7%
[12]
  % of control: 45%
[13]
  % of control: 0%

## CN(C)C(=O)Cn1cc(-c2nc(C3(c4ccc(-c5cnc(N)nc5)cc4)CC3)no2)cn1
[14]
  % of control: 44%
[15]
  % of control: 41%
Aurora kinase B
  % of control: 41%
[16]
  % of control: 46%

## CCS(=O)(=O)c1cc2cc(C[C@](O)(CC(C)(C)c3ccc(F)cc3C(N)=O)C(F)(F)F)[nH]c2cn1
D(1B) dopamine receptor [17]
  % of inhibition: 34%
[18]
  % of control: 75%
[19]
  % of control: 40%
[20]
  % of control: 75%

## CCS(=O)(=O)c1cc2cc(C[C@@](O)(CC(C)(C)c3ccc(F)cc3C(N)=O)C(F)(F)F)[nH]c2cn1
[21]
  % of control: 0%
[22]
  % of control: 0%
[23]
  % of control: 38%
D(1B) dopamine receptor [24]
  % of inhibition: 32%
[25]
  % of control: 0%
[26]
  % of control: 0%
[27]
  % of inhibition: 28%
[28]
  % of control: 0%
[29]
  % of control: 0%
[30]
  % of inhibition: 21%
